The source of these data is patent publication US12351570B2 (MERCK PATENT GMBH, priority 2018, dated 2025).

In one assay the test system is MDA-MB-231 cells. Description: Extracellular lactate production inhibition after 4 h, MDA-MB-231. Conditions: Homo sapiens, MDA-MB-231.
One may read the IC50 as the midpoint of a concentration-inhibition curve. Low values mean greater potency, high ones weaker potency. `Cn1c2ccccc2c2cc(S(=O)(=O)Nc3ccccc3C#Cc3ccc(C(=O)O)nc3)ccc21` [Compound 227, 5-{2-[2-(9-methyl-9H-carbazole-3-sulfonamido)phenyl]ethynyl}pyridine-2-carboxylic acid] returned a concentration for half-maximal inhibition (IC50) of 10 to 100 nM.

On to `CC1CCN(S(=O)(=O)Nc2ccccc2C#Cc2ccc(C(=O)O)nc2)C2CCCCC12` (centres unmarked) [Compound 228, 5-[2-(2-{[(4-methyl-decahydroquinolin-1-yl)sulfonyl]amino}phenyl)ethynyl]pyridine-2-carboxylic acid], for which the 50% inhibitory concentration (IC50) was in the range of 10 to 100 nM.

As to `COc1cc(C#Cc2ccccc2NS(=O)(=O)c2ccc(OC)c3cccnc23)ccc1C(=O)O` [Compound 230, 2-methoxy-4-{2-[2-(5-methoxyquinoline-8-sulfonamido)phenyl]ethynyl}benzoic acid], the IC50 was in the range of 100 to 1000 nM.

In the case of `Cc1ccc2cccnc2c1S(=O)(=O)Nc1ccc(N)cc1C#Cc1ccc(C(=O)O)nc1` [Compound 231, 5-{2-[5-amino-2-(7-methylquinoline-8-sulfonamido)phenyl]ethynyl}pyridine-2-carboxylic acid], the IC50 is 1000 to 100000 nM.

As for `CNc1cc(C#Cc2ccccc2NS(=O)(=O)c2ccc(OC)c3cccnc23)ccc1C(=O)O` [Compound 232, 4-{2-[2-(5-methoxyquinoline-8-sulfonamido)phenyl]ethynyl}-2-(methylamino)benzoic acid], the IC50 is 100 to 1000 nM.

`Cc1ccc2cccnc2c1S(=O)(=O)Nc1ccc(Br)cc1C#Cc1cnc(C(=O)O)c2ccccc12` [Compound 233, 4-{2-[5-bromo-2-(7-methylquinoline-8-sulfonamido)phenyl]ethynyl}isoquinoline-1-carboxylic acid] displayed an IC50 of 10 to 100 nM.

`Cc1ccc2cccnc2c1S(=O)(=O)Nc1ccc(Cl)cc1C#Cc1cnc(C(=O)O)c2ccccc12` [Compound 234, 4-{2-[5-chloro-2-(7-methylquinoline-8-sulfonamido)phenyl]ethynyl}isoquinoline-1-carboxylic acid] came in with an IC50 of 10 to 100 nM.

Regarding `COc1ccc(S(=O)(=O)Nc2ccc(Br)cc2C#Cc2cnc(C(=O)O)c3ccccc23)c2ncccc12` [Compound 235, 4-{2-[5-bromo-2-(5-methoxyquinoline-8-sulfonamido)phenyl]ethynyl}isoquinoline-1-carboxylic acid], the IC50 was in the range of 1 to 10 nM.

For the compound `COc1ccc(S(=O)(=O)Nc2ccc(Cl)cc2C#Cc2cnc(C(=O)O)c3ccccc23)c2ncccc12` [Compound 236, 4-{2-[5-chloro-2-(5-methoxyquinoline-8-sulfonamido)phenyl]ethynyl}isoquinoline-1-carboxylic acid], the concentration for half-maximal inhibition (IC50) fell in the range of 10 to 100 nM.

As to `CNc1cc(C#Cc2cc(Cl)ccc2NS(=O)(=O)c2c(C)ccc3cccnc23)cnc1C(=O)O` [Compound 237, 5-{2-[5-chloro-2-(7-methylquinoline-8-sulfonamido)phenyl]ethynyl}-3-(methylamino)pyridine-2-carboxylic acid], the concentration for half-maximal inhibition (IC50) lay within 1 to 10 nM.

`COc1ccc(S(=O)(=O)Nc2ccc(Br)cc2C#Cc2ccc(C(=O)N(C)C)nc2)c2ncccc12` [Compound 238, 5-{2-[5-bromo-2-(5-methoxyquinoline-8-sulfonamido)phenyl]ethynyl}-N,N-dimethylpyridine-2-carboxamide]: the half-inhibitory concentration (IC50) was in the range of 1000 to 100000 nM.

The compound `COc1ccc(S(=O)(=O)Nc2ccc(Cl)cc2C#Cc2ccc(C(=O)N(C)C)nc2)c2ncccc12` [Compound 239, 5-{2-[5-chloro-2-(5-methoxyquinoline-8-sulfonamido)phenyl]ethynyl}-N,N-dimethylpyridine-2-carboxamide] had an IC50 of 1000 to 100000 nM.

In turn, `COc1cc(C(=O)O)ncc1C#Cc1ccccc1NS(=O)(=O)c1ccc(OC)c(C)c1C` [Compound 241, 4-methoxy-5-{2-[2-(4-methoxy-2,3-dimethylbenzenesulfonamido)-phenyl]ethynyl}pyridine-2-carboxylic acid] returned an IC50 of 10 to 100 nM.

Regarding `CNc1cc(C#Cc2cc(Cl)ccc2NS(=O)(=O)c2ccc(OC)c3cccnc23)cnc1C(=O)O` [Compound 242, 5-{2-[5-chloro-2-(5-methoxyquinoline-8-sulfonamido)phenyl]ethynyl}-3-(methyl-amino)pyridine-2-carboxylic acid], the IC50 lay within 1 to 10 nM.

On to `COc1cc(C(=O)O)ncc1C#Cc1cc(Cl)ccc1NS(=O)(=O)c1ccc(OC)c(C)c1C` [Compound 243, 5-{2-[5-chloro-2-(4-methoxy-2,3-dimethylbenzenesulfonamido)-phenyl]ethynyl}-4-methoxypyridine-2-carboxylic acid], for which the IC50 was in the range of 1 to 10 nM.

For the compound `COC(=O)c1ccc(C#Cc2cc([N+](=O)[O-])ccc2NS(=O)(=O)c2c(C)ccc3cccnc23)cn1` [Compound 244, methyl 5-{2-[2-(7-methylquinoline-8-sulfonamido)-5-nitrophenyl]ethynyl}-pyridine-2-carboxylate], the IC50 lay within 10 to 100 nM.

On to `COc1ccc(S(=O)(=O)Nc2ccccc2C#Cc2cnc3c(c2)CN(C)C3=O)c2ncccc12` [Compound 245, 5-methoxy-N-[2-(2-{6-methyl-7-oxo-5H,6H,7H-pyrrolo[3,4-b]pyridin-3-yl}ethynyl)phenyl]quinoline-8-sulfonamide], for which the concentration for half-maximal inhibition (IC50) was in the range of 1000 to 100000 nM.

In the case of `CNc1cc(C#Cc2ccccc2NS(=O)(=O)c2ccc(OC)c3cccnc23)cnc1C(=O)N(C)C` [Compound 246, 5-{2-[2-(5-methoxyquinoline-8-sulfonamido)phenyl]ethynyl}-N,N-dimethyl-3-(methylamino)pyridine-2-carboxamide], the IC50 was 1000 to 100000 nM.

Compound `COc1ccc(NS(=O)(=O)c2c(C)ccc3cccnc23)c(C#Cc2ccc(C(=O)O)nc2)c1` [Compound 247, 5-{2-[5-methoxy-2-(7-methylquinoline-8-sulfonamido)phenyl]ethynyl}pyridine-2-carboxylic acid] registered a 50% inhibitory concentration (IC50) of 10 to 100 nM.

`Cc1ccc2cccnc2c1S(=O)(=O)Nc1ccc(N(C)C)cc1C#Cc1ccc(C(=O)O)nc1` [Compound 248, 5-{2-[5-(dimethylamino)-2-(7-methylquinoline-8-sulfonamido)phenyl]ethynyl}pyridine-2-carboxylic acid]: the IC50 lay within 100 to 1000 nM.

As to `O=C(O)c1ccc(C#Cc2ccccc2NS(=O)(=O)c2ccc3c(c2)OCCO3)cc1` [Compound 250, 4-[2-(2,3-Dihydro-benzo[1,4]dioxine-6-sulfonylamino)-phenylethynyl]-benzoic acid], the IC50 was 1000 to 100000 nM.

Regarding `O=C(O)c1ccc(C#Cc2ccccc2NS(=O)(=O)c2cccc3c2OC(F)(F)O3)cc1` [Compound 251, 4-[2-(2,2-Difluoro-benzo[1,3]dioxole-4-sulfonylamino)-phenylethynyl]-benzoic acid], the IC50 fell in the range of 1000 to 100000 nM.

As to `COc1ccc(S(=O)(=O)Nc2ccccc2C#Cc2ccc(C(=O)NS(C)(=O)=O)cc2)c2ccccc12` [Compound 252, 4-Methoxy-naphthalene-1-sulfonic acid [2-(4-methanesulfonylaminocarbonyl-phenylethynyl)-phenyl]-amide], the IC50 lay within 1000 to 100000 nM.

In the case of `COc1ccc(S(=O)(=O)Nc2ccccc2C#Cc2ccc(C(=O)NC#N)cc2)c2ccccc12` [Compound 253, N-cyano-4-{2-[2-(4-methoxy-naphthalene-1-sulfonamido)phenyl]-ethynyl}benzamide], the IC50 lay within 1000 to 100000 nM.

On to `O=C(O)c1ccc(C#Cc2ccccc2NS(=O)(=O)c2cccc3c2OCCO3)cc1` [Compound 254, 4-[2-(2,3-Dihydro-benzo[1,4]dioxine-5-sulfonylamino)-phenylethynyl]-benzoic acid], for which the IC50 was in the range of 1000 to 100000 nM.

Take `COc1ccc(S(=O)(=O)Nc2ccc(F)cc2C#Cc2ccc(C(=O)NC#N)nc2)c2ccccc12` [Compound 256, N-cyano-5-{2-[5-fluoro-2-(4-methoxynaphthalene-1-sulfonamido)-phenyl]ethynyl}pyridine-2-carboxamide]: the IC50 lay within 1000 to 100000 nM.

In turn, `COc1cc(S(=O)(=O)Nc2ccccc2C#Cc2ccc(C(=O)O)cc2)cc2ccccc12` [Compound 258, 4-[2-(4-Methoxy-naphthalene-2-sulfonylamino)-phenylethynyl]-benzoic acid] yielded a half-inhibitory concentration (IC50) of 100 to 1000 nM.

On to `COc1ccc(S(=O)(=O)Nc2ccccc2C#Cc2ccc(C(N)=O)cc2)c2ccccc12` [Compound 261, 4-[2-(4-Methoxy-naphthalene-1-sulfonylamino)-phenylethynyl]-benzamide], for which the IC50 lay within 1000 to 100000 nM.

Compound `Cc1cnc2c(S(=O)(=O)Nc3ccccc3C#Cc3ccc(C(=O)O)nc3)cccc2c1` [Compound 262, 5-[2-(3-Methyl-quinoline-8-sulfonyl-amino)-phenylethynyl]-pyridine-2-carboxylic acid] yielded an IC50 of 100 to 1000 nM.

`COc1ccc(S(=O)(=O)Nc2ccccc2C#Cc2ccc(C(=O)O)cc2)cc1OC` [Compound 263, 4-[2-(3,4-Dimethoxy-benzenesulfonyl-amino)-phenylethynyl]-benzoic acid]: the IC50 was 1000 to 100000 nM.

As to `Cc1ccnc2c(S(=O)(=O)Nc3ccccc3C#Cc3ccc(C(=O)O)nc3)cccc12` [Compound 264, 5-[2-(4-Methyl-quinoline-8-sulfonyl-amino)-phenylethynyl]-pyridine-2-carboxylic acid], the concentration for half-maximal inhibition (IC50) lay within 100 to 1000 nM.

For the compound `Cc1cc(S(=O)(=O)Nc2ccccc2C#Cc2ccc(C(=O)O)nc2)c2ncccc2c1` [Compound 265, 5-[2-(6-Methyl-quinoline-8-sulfonyl-amino)-phenylethynyl]-pyridine-2-carboxylic acid], the IC50 was in the range of 100 to 1000 nM.

`O=C(O)c1ccc(C#Cc2ccccc2NS(=O)(=O)c2cccc3c(Cl)ccnc23)cn1` [Compound 266, 5-[2-(4-Chloro-quinoline-8-sulfonylamino)-phenylethynyl]-pyridine-2-carboxylic acid]: the concentration for half-maximal inhibition (IC50) fell in the range of 10 to 100 nM.

Take `Cc1ccc2cccc(S(=O)(=O)Nc3ccccc3C#Cc3ccc(C(=O)O)nc3)c2n1` [Compound 267, 5-[2-(2-Methyl-quinoline-8-sulfonylamino)-phenylethynyl]-pyridine-2-carboxylic acid]: the 50% inhibitory concentration (IC50) lay in the range of 100 to 1000 nM.

The assay is the same for the next values; noted with them: Table 3; group class A-D; the table does not say which assay or cell line ("the assays described above").
`COc1ccc(S(=O)(=O)Nc2ccc(F)cc2C#Cc2ccc(C(=O)NS(C)(=O)=O)nc2)c2ccccc12` [Compound 255, 4-Methoxy-naphthalene-1-sulfonic acid [4-fluoro-2-(6-methanesulfonyl-aminocarbonyl-pyridin-3-ylethynyl)-phenyl]-amide] had an IC50 of 1000 to 100000 nM.
